Test results reported in patent publication US20230278997A1, “BICYCLO[1.1.1]PENTANE COMPOUNDS FOR THE TREATMENT AND PROPHYLAXIS OF HEPATITIS B VIRUS INFECTION” (Hoffmann-La Roche Inc., priority 2020, published 2023).

Columns and labels:
[1] = Human microsome stability assay; type: in vitro ADME; conditions: 1 μM compound, 0.5 mg/mL microsomal protein, 37° C.; detection limit 6.15 mL/min/kg
Experimental: Human Microsome Stability Assay The human microsomal stability assay is used for early assessment of metabolic stability of a test compound in human liver microsomes. Human liver microsomes (Cat. […] The reactions were initiated by adding NADPH regenerating system. […] Following precipitation and centrifugation, the amount of compound remaining in the samples were determined by LC-MS/MS. Controls of no NADPH regenerating system at zero and 30 minutes were also prepared and analyzed.

HBsAg = assay: microbe, parasite or virus in culture; type: cell-based, HBV; conditions: Hepatitis B virus, read-out: HBsAg IC50
HBeAg = assay: microbe, parasite or virus in culture; type: cell-based, HBV; conditions: Hepatitis B virus, read-out: HBeAg IC50
[2] = test system: primary human hepatocyte (PHH); assay: Cytotoxicity in PHH natural infection assay (Cell Counting Kit-8); type: cell-based; conditions: therapeutic index; CC50 by CCK8 in PHH over HBsAg IC50
Experimental: Detailed procedures regarding primary human hepatocyte (PHH) HBV natural infection assay are described as below. One tube of frozen PHH (10 million cells) was thawed in 37° C. water bath and then transferred to 20 mL of PHH thawing medium (Sigma, InVitroGRO HT Medium, Cat. 503319) with gently mixing. The cells were then centrifuged at […] for 5 min, the supernatant was discarded and the tube was refilled with 25 mL of PHH plating medium (Sigma, InVitroGRO CP Medium, Cat. 503317). The tube was shaken very gently to re-suspend all cells, and then 50 μl of cells were transferred to each well of a 384-well collagen I coated plate with appropriate liquid handling equipment, e.g. Integra VIAFLO384 or Agilent Bravo. The cells were then cultured for 24 hours in a cell incubator. For HBV infection, after PHH attachment on the culture plate, the plating medium was removed and replenished with PHH culture medium containing HBV virus. The PHH culture medium was prepared with Dulbecco's Modified Eagle Medium (DMEM)/F12 (1:1 in volume ratio) containing 10% fetal bovine serum (Gibco, Cat.10099141), 5 ng/mL human epidermal growth factor (Gibco, Cat.PHG031 IL), 20 ng/mL dexamethasone (Sigma, Cat.D4902-100 mg), 250 ng/mL human recombinant insulin (Gibco, Cat.41400045) and 100 U/mL penicillin. HBV virus at 200 genome equivalent (GE) per cell with 4% PEG8000 (Sigma, Cat.P1458) containing culture medium were added to the PHH culture medium for infection. The cells were then cultured for 24 hours in cell incubator. Then the cell culture supernatant was removed. The HBV-infected PHH were cultured with sandwich culture method with PHH culture medium containing 1% DMSO and 0.25 mg/mL matrix gel for 72 hours. The supernatant was then refreshed with PHH culture medium containing different concentrations of testing compounds for two times with 72-hour interval. At the end of treatment, the supernatant was collected for viral markers measurements, including HBsAg, HBeAg, HBV DNA and cytotoxicity. HBsAg and HBeAg were detected using alphalisa method using their specific antibodies. For HBV DNA detection, HBV DNA Quantitative Fluorescence Diagnostic Kit (Sansure Biotech Inc.) was used following the manufacture's protocol. Cytotoxicity was determined using Cell Counting Kit-8 (CCK8, Dojindo Molecular Technologies, Inc.).

Q: Which results are given for `CS(=O)(=O)C1(c2ccc(C(=O)NC34CC(c5ccnc(-c6ccc(Cl)cc6)n5)(C3)C4)o2)CC1` [Example 47, N-[3-[2-(4-chlorophenyl)pyrimidin-4-yl]-1-bicyclo[1.1.1]pentanyl]-5-(1-methylsulfonylcyclopropyl)furan-2-carboxamide]?
A: Clearance of human microsome [1]: ≤6.15 mL/min/kg; IC50 (HBsAg): 150 nM; IC50 (HBeAg): 140 nM; TI (CC50/IC50 HBsAg) [2]: 59.67

Q: What does the source list for `CS(=O)(=O)C1(c2nsc(C(=O)NC34CC(c5ccn(-c6ccc(Cl)cc6)n5)(C3)C4)n2)CC1` [Example 43, N-[3-[1-(4-chlorophenyl)pyrazol-3-yl]-1-bicyclo[1.1.1]pentanyl]-3-(1-methylsulfonylcyclopropyl)-1,2,4-thiadiazole-5-carboxamide]?
A: Clearance of human microsome [1]: ≤6.15 mL/min/kg; IC50 (HBsAg): 90 nM; IC50 (HBeAg): 80 nM; TI (CC50/IC50 HBsAg) [2]: >111.11

Q: With `CS(=O)(=O)C1(c2ccc(C(=O)NC34CC(c5ncc(-c6ccc(Cl)cc6)s5)(C3)C4)o2)CC1` [Example 19, N-[3-[5-(4-chlorophenyl)thiazol-2-yl]-1-bicyclo[1.1.1]pentanyl]-5-(1-methylsulfonylcyclopropyl)furan-2-carboxamide] as the compound, how does the “Clearance of human microsome” value [1] read?
A: ≤6.15 mL/min/kg

Q: What about the IC50 (HBsAg) of the same compound?
A: 210 nM

Q: What about the IC50 (HBeAg) of the same compound?
A: 160 nM

Q: And the “TI (CC50/IC50 HBsAg)” value [2]?
A: >47.62

Q: For `CS(=O)(=O)C1(c2ccc(C(=O)NC34CC(c5ncc(-c6ccc(Cl)c(Cl)c6)s5)(C3)C4)o2)CC1` [Example 21, N-[3-[5-(3,4-dichlorophenyl)thiazol-2-yl]-1-bicyclo[1.1.1]pentanyl]-5-(1-methylsulfonylcyclopropyl)furan-2-carboxamide], which “Clearance of human microsome” value [1] is on record?
A: 6.66 mL/min/kg

Q: And the IC50 (HBsAg)?
A: 70 nM

Q: And the IC50 (HBeAg)?
A: 70 nM

Q: What about the “TI (CC50/IC50 HBsAg)” value [2] of the same compound?
A: 29.86

Q: What does the source list for `CS(=O)(=O)C1(c2ccn(C(=O)NC34CC(c5nc(-c6ccc(Cl)cc6)cs5)(C3)C4)n2)CC1` [Example 53, N-[3-[4-(4-chlorophenyl)thiazol-2-yl]-1-bicyclo[1.1.1]pentanyl]-3-(1-methylsulfonylcyclopropyl)pyrazole-1-carboxamide]?
A: IC50 (HBsAg): 170 nM; IC50 (HBeAg): 110 nM; TI (CC50/IC50 HBsAg) [2]: 21.88

Q: Which “Clearance of human microsome” value [1] does the source give for `CS(=O)(=O)C1(c2ccc(C(=O)NC34CC(c5nc(-c6ccccc6)cs5)(C3)C4)o2)CC1` [Example 13, 5-(1-methylsulfonylcyclopropyl)-N-[3-(4-phenylthiazol-2-yl)-1-bicyclo[1.1.1]pentanyl]furan-2-carboxamide] here?
A: ≤6.15 mL/min/kg

Q: What about the IC50 (HBsAg) of the same compound?
A: 770 nM

Q: What about the IC50 (HBeAg) of the same compound?
A: 560 nM

Q: What about the “TI (CC50/IC50 HBsAg)” value [2] of the same compound?
A: 12.38

Q: Which IC50 (HBsAg) does the source give for `CS(=O)(=O)C1(c2ncc(C(=O)NC34CC(c5ncc(-c6ccc(Cl)cc6)s5)(C3)C4)o2)CC1` [Example 55, N-[3-[5-(4-chlorophenyl)thiazol-2-yl]-1-bicyclo[1.1.1]pentanyl]-2-(1-methylsulfonylcyclopropyl)oxazole-5-carboxamide] here?
A: 90 nM

Q: What about the IC50 (HBeAg) of the same compound?
A: 70 nM

Q: And the “TI (CC50/IC50 HBsAg)” value [2]?
A: 89.00

Q: Which “Clearance of human microsome” value [1] does the source give for `CS(=O)(=O)C1(c2ccc(C(=O)NC34CC(c5nc(-c6cccc(Cl)c6)cs5)(C3)C4)o2)CC1` [Example 2, N-[3-[4-(3-chlorophenyl)thiazol-2-yl]-1-bicyclo[1.1.1]pentanyl]-5-(1-methylsulfonylcyclopropyl)furan-2-carboxamide] here?
A: ≤6.15 mL/min/kg

Q: And the IC50 (HBsAg)?
A: 350 nM

Q: What about the IC50 (HBeAg) of the same compound?
A: 200 nM

Q: What about the “TI (CC50/IC50 HBsAg)” value [2] of the same compound?
A: 20.66

Q: With `CS(=O)(=O)C1(c2ccn(C(=O)NC34CC(c5ncc(-c6ccc(Cl)cc6)s5)(C3)C4)n2)CC1` [Example 54, N-[3-[5-(4-chlorophenyl)thiazol-2-yl]-1-bicyclo[1.1.1]pentanyl]-3-(1-methylsulfonylcyclopropyl)pyrazole-1-carboxamide] as the compound, how does the IC50 (HBsAg) read?
A: 60 nM

Q: What about the IC50 (HBeAg) of the same compound?
A: 50 nM

Q: What about the “TI (CC50/IC50 HBsAg)” value [2] of the same compound?
A: 10.83
